Test results reported in patent US8906829B2, “Synergistic algicidal compositions including hydrazone derivatives and copper” (Dow AgroSciences LLC, priority 2010, dated 2014).

Key:
C. reinhardtii CC-1928 = assay: Effect of copper on activity of hydrazones: in vitro growth inhibition of C. reinhardtii in TAP Cu minus / TAP Cu plus medium (Example 10); assay type: cell-based, Chlamydomonas reinhardtii; conditions: test compound 1 μg/mL, 48 h; for inhibition of growth at 1 µg/mL: Chlamydomonas reinhardtii, TAP Cu minus medium, read-out: % Inhn. Minus Copper Observed; for % Inhn. Plus Copper Observed: TAP Cu plus medium (CuCl2)
Procedure, shortened: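 Washed cells (suspension 2×10^5 spores per mL) added to compound at 1 μg/mL in Chelex-treated TAP Cu minus or TAP Cu plus (20 μM CuCl2). After 48 h at 27 °C, growth read by light scattering; % inhibition vs compound-free wells, plus-Cu predicted values by Colby formula from minus-Cu data.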

C. reinhardtii = assay: Growth inhibition of C. reinhardtii by hydrazones and isolated metal-hydrazone complexes, TAP Cu minus medium (Example 12); assay type: cell-based, Chlamydomonas reinhardtii; conditions: for inhibition of growth at 1 µg/mL: Chlamydomonas reinhardtii, parent hydrazone 1 μg/mL, read-out: Hydrazone % Inhn.
Description: In vitro toxicity assays against C. reinhardtii CC-1928 (wild type mt+137c green in dark subclone) obtained from the Chlamydomonas Resource Center at Duke University were conducted using TAP liquid growth medium described by Gorman and Levine Proc. Natl. Acad. Sci. USA 1965, 54, 1665-1669 except that CuSO4.5H2O, normally included as a component of Hutner's trace element stock solution (Hutner et al. Proc. Am. Philos. Soc. 1950, 94, 152-170), was omitted. The TAP medium lacking Cu (TAP Cu minus) was prepared by adding 400 mg NH4Cl, 10 mL of 100× Tris-Acetate (242 g Tris-base and 100 mL glacial acetic acid in 1000 mL milli Q water), and 8.3 mL of 120.5× phosphate buffer (14.34 g K2HPO4 and 7.26 g KH2PO4 in 1000 mL milli Q water) to milli Q water to make a total volume of 1 liter. The medium was treated with 0.5 g Chelex 100 resin (Bio-Rad Analytical grade, 50-100 mesh, sodium form, cat#142-2822) by stirring at room temperature for 1 hour. 900 mL were decanted and 45.9 mg of CaCl2.2H2O, 90 mg of MgSO4.7H2O and 0.9 mL Hutner's trace elements lacking CuSO4.5H2O were added and the solution was filter-sterilized. Medium containing copper (TAP Cu plus) was prepared by adding CuCl2.2H2O to the TAP Cu minus medium at 20 μM. Test compounds were dissolved in dimethylsulfoxide (DMSO) at 2 mg/mL then dilutions in TAP Cu minus and TAP Cu plus media were prepared in sterilized microcentrifuge tubes at 2 μg/mL. 100 μL aliquots of diluted compound were dispensed into flat-bottomed 96-well microtiter plates. C. reinhardtii was maintained under 12 h of light on TAP agar plates at 18° C. A loopful of cells was added to 50 mL of TAP Cu minus medium and the culture incubated with shaking at 200 rpm at 27° C. for 24 h. The culture (10 to 20 mL aliquot) was centrifuged in a bench centrifuge at 2000 rpm for 2 min. The resulting cell pellet was resuspended in 5 mL sterile milli Q water (which had been treated with Chelex 100 resin using 0.5 g resin per liter of water by stirring at room temperature for 1 h), and recentrifuged. The cells were resuspended in TAP Cu minus medium, and the suspension adjusted to 2×10^5 spores per mL. Microtiter plates containing compounds as described above were inoculated with 100 μL of this cell suspension and the plates incubated at 27° C. for 48 h before assessing algal growth by measuring light scattering in a NepheloStar plate-reader. Growth inhibition was determined by comparing growth in the presence of test compound with growth in control wells lacking test compound. Hydrazones and their isolated metal complexes were compared with respect to their in vitro activity toward C. reinhardtii and the cyanobacterium (blue-green alga) Synechocystis sp. strain 6803. Metal complexes of hydrazones were prepared by precipitation from ethanol with various metal salts at 1:1, 2:1 or 3:1 molar ratios, as described in general by Ainscough, Brodie, Dobbs, Ranford, and Waters (Inorganica Chimica Acta 1998, 267, 27-38, which is expressly incorporated by reference herein). In vitro assays against C. reinhardtii were conducted as described in Example 10 using TAP Cu minus medium. Growth inhibition was determined by comparing growth in the presence of test compound with growth in control wells lacking test compound. Results for growth inhibition of C. reinhardtii by hydrazones and corresponding isolated metal complexes (each at 1 μg/mL) are shown in Table 6.

[1] = tested on: Synechocystis sp. strain 6803; assay: Growth inhibition of Synechocystis by hydrazones and isolated metal-hydrazone complexes, BG-11 Cu minus medium (Example 12); assay type: cell-based; conditions: Synechocystis, Test Concn. 0.05 μg/ml, read-out: Hydrazone % Inhn.
Description: In vitro toxicity assays against the cyanobacterium (blue-green alga) Synechocystis sp. strain 6803 were conducted using BG-11 medium except that copper micronutrient, normally included as CuSO4.5H2O, was omitted. The medium, termed BG-11 Cu minus, was prepared by dissolving 1.5 g NaNO3, 40 mg K2HPO4, 6 mg citric acid, 1 mg Na2EDTA and 20 mg Na2CO3 in 1 liter of milli Q water and treating the solution with 0.5 g Chelex 100 resin (Bio-Rad Analytical grade, 50-100 mesh, sodium form, cat#142-2822) by stifling at room temperature for 1 h. 900 mL were decanted and 67.5 mg MgSO4.7H2O, 32.4 mg […], 5.4 mg ferric ammonium citrate and 0.9 mL trace metal mix A5 without copper (2.86 g H3BO3, 1.81 g MnCl2.4H2O, 222 mg ZnSO4.7H2O, 390 mg Na2MoO4.2H2O and Co(NO3)2.6H2O in 1 L Milli Q water) was added. The pH was adjusted to 7.1 and the medium was filter-sterilized. Medium containing copper (BG-11 Cu plus) was prepared by adding CuCl2.2H2O to the BG-11 Cu minus medium at 0.2 μM. Test compounds were dissolved in dimethylsulfoxide (DMSO) at 2 mg/mL then appropriate dilutions in BG-11 Cu minus and BG-11 Cu plus media were prepared in sterilized microcentrifuge tubes. 100 μL aliquots were dispensed into flat-bottomed 96-well microtiter plates. Synechocystis was maintained under 24 h of light on BG-11 agar plates at 27° C. A loopful of cells was added to 50 mL of BG-11 Cu minus growth medium and the culture was incubated with shaking at 200 rpm at 27° C. for 24 h. The culture (10 to 20 mL aliquot) was centrifuged in a bench centrifuge at 2400 rpm for 2 min. The resulting cell pellet was resuspended in 5 mL sterile milli Q water (which had been treated with Chelex 100 resin using 0.5 g resin per liter of water by stirring at room temperature for 1 h), and recentrifuged. The cells were resuspended in BG-11 Cu minus medium, and the suspension adjusted to 4×10^5 spores per mL. Microtiter plates containing compounds as described above were inoculated with 100 μL of this cell suspension and the plates incubated at 27° C. for 72 h before assessing algal growth by measuring light scattering in a NepheloStar plate reader. Growth inhibition was determined by comparing growth in the presence of test compound with growth in control wells lacking test compound. Hydrazones and their isolated metal complexes were compared with respect to their in vitro activity toward C. reinhardtii and the cyanobacterium (blue-green alga) Synechocystis sp. strain 6803. Metal complexes of hydrazones were prepared by precipitation from ethanol with various metal salts at 1:1, 2:1 or 3:1 molar ratios, as described in general by Ainscough, Brodie, Dobbs, Ranford, and Waters (Inorganica Chimica Acta 1998, 267, 27-38, which is expressly incorporated by reference herein). In vitro assays against Synechocystis were conducted as described in Example 11 using BG-11 Cu minus medium. Growth inhibition was determined by comparing growth in the presence of test compound with growth in control wells lacking test compound.

| SMILES | inhibition of growth at 1 µg/mL (C. reinhardtii CC-1928) [%] | % Inhn. Plus Copper Observed (C. reinhardtii CC-1928) [%] | inhibition of growth at 1 µg/mL (C. reinhardtii) [%] | melting point [°C] | inhibition of growth at 0.05 µg/mL [1] [%] | Complex % Inhn. (C. reinhardtii; isolated metal complex 1 μg/mL) [%] |
| --- | --- | --- | --- | --- | --- | --- |
| O=C(N/N=C/c1cc(Cl)cc(Cl)c1O)c1ccc(Cl)cc1 [Compound 64] | -5 | 97 | -5 | – | – | – |
| C/C(=N\NC(=O)c1cccc(Cl)c1)c1cc(Cl)cc(Cl)c1O [Compound 65] | -5 | 97 | -5 | 245 to 246 | – | – |
| O=C(N/N=C/c1cc(Cl)cc(C(F)(F)F)c1O)c1ccc(Cl)cc1 [Compound 66] | -4 | 97 | -4 | 232 to 234 | – | – |
| O=C(N/N=C/c1cc(C(F)(F)F)ccc1O)c1ccccc1 [Compound 68] | – | – | – | 214 to 217 | 16 | – |
| C/C(=N\NC(=O)c1cccc(C)c1)c1cc(Cl)cc(Cl)c1O.[Cl-].[Cl-].[Cu+2] [Compound 90] | – | – | – | – | – | 49 |
